The test system of test [1] is HCT116. Briefly: AC50 cell viability (CellTiter-Glo); higher = less potent. Conditions: 48 h. On the technique in general: Cellular ATP, detected with luciferase, serves as a proxy for viable cell number.
In test [2] the test system is HCT116. Kind of test: efficacy (fitted maximal change in viability relative to DMSO control); higher = less cytotoxic (negative = loss of viability). The note with it: 48 h.

Molecules are shown by their SMILES. Structures can show the parent of a compound that is named as a salt.
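Wherever AC50 cell viability (CellTiter-Glo) is given: HCT116 colorectal carcinoma cells screened at five concentrations per compound, luminescent viability scaled between DMSO wells and empty wells on each plate, curves fitted per compound.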
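Wherever efficacy (fitted maximal change in viability relative to DMSO control) is given: Luminescence-based viability readout, five doses per compound, normalized against on-plate DMSO and empty-well controls, followed by dose-response curve fitting for every drug.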

In turn, `NC1(C(=O)N[C@@H](CCO)c2ccc(Cl)cc2)CCN(c2ncnc3[nH]ccc23)CC1` [AZD-5363] returned an AC50 cell viability with HCT116 [1] of 11.8 µM. In addition, the efficacy with HCT116 [2] was -83.1%.
The like results for `Cc1ncc(-c2ccnc(Nc3ccc([S+](C)(=O)[O-])cc3)n2)n1C(C)C` [AZD-5438] were, in that order, 0.525 µM and -62.2%.
In the test on HCT116 [1], `C[C@@H](NC1=CC=CC=C1C(O)=O)C/2=C/C(=C\N3C(=O)/C=C(\N=C23)N4CCOCC4)C` [AZD-6482] came in with an AC50 cell viability of 10.5 µM. Moreover, the efficacy in the test on HCT116 [2] was -52.7%.
On the same counts, the results for `C[C@@H]1COCCN1c1cc(C2([S@+](C)(=N)[O-])CC2)nc(-c2ccnc3[nH]ccc23)n1` [AZD-6738] are 8.33 µM and -84.1%.
In turn, `CN(C)C(=O)c1ccc([S+](=O)([O-])c2ccc(NC(=O)[C@@](C)(O)C(F)(F)F)c(Cl)c2)cc1` [AZD-7545] displayed an AC50 cell viability in the test on HCT116 [1] of 5.9 µM. The efficacy in the test with HCT116 [2] is -33.1%.
The like results for `NC(=O)Nc1cc(-c2cccc(F)c2)sc1C(=O)N[C@H]1CCCNC1` [AZD-7762] were, in that order, 0.833 µM and -101%.
The like results for `COc1ccc(-c2ccc3c(N4CCOC[C@@H]4C)nc(N4CCOC[C@@H]4C)nc3n2)cc1CO` [AZD-8055] were, in that order, 0.295 µM and -51.6%.
The like results for `C[C@@H](Nc1cc(F)cc(F)c1)c1cc(C(=O)N(C)C)cc2c(=O)cc(N3CCOCC3)oc12` [AZD-8186] were, in that order, 10.5 µM and -78.7%.
Compound `CN1C(=O)\C(=C/C(=C1/NC2=C(F)C=C(I)C=C2)C(=O)NOCCO)C` [AZD-8330] returned an AC50 cell viability in the test with HCT116 [1] of 0.00934 µM. Also, the efficacy in the test on HCT116 [2] was -68.6%.
On the same counts, the results for `CCN1CCN(Cc2ccc(Nc3ncc(F)c(-c4cc(F)c5nc(C)n(C(C)C)c5c4)n3)nc2)CC1` [Abemaciclib] are 4.17 µM and -109%.
On the same counts, the results for `CN(C)Cc1c(C(=O)NCCOc2ccc(C(=O)NO)cc2)oc2ccccc12` [Abexinostat] are 0.263 µM and -91.9%.
On the same counts, the results for `CC[C@@]1(O)C[C@H](O[C@H]2C[C@H](N(C)C)[C@H](O[C@H]3C[C@H](O)[C@H](O[C@H]4CCC(=O)[C@H](C)O4)[C@H](C)O3)[C@H](C)O2)c2c(cc3c(c2O)C(=O)c2c(O)cccc2C3=O)[C@H]1C(=O)OC` [Aclarubicin] are 3.72 µM and -89.2%.
Consider `C\C1=C(\[C@@H](OC2=C1C=CC(=C2)O)C3=CC=C(OCCN4CCCCC4)C=C3)C5=CC=C(O)C=C5` [Acolbifene], for which the AC50 cell viability in the test on HCT116 [1] was found to be 18.6 µM. Further, the efficacy with HCT116 [2] is -94.9%.
As to `CC(C)C1NC(=O)C(NC(=O)C2=C3\N=C\4/C(=C(C)\C(=O)\C(=C4C(=O)NC5C(C)OC(=O)C(C(C)C)N(C)C(=O)CN(C)C(=O)C6CCCN6C(=O)C(NC5=O)C(C)C)N)OC3=C(C)C=C2)C(C)OC(=O)C(C(C)C)N(C)C(=O)CN(C)C(=O)C7CCCN7C1=O` (centres undefined) [Actinomycin D], the AC50 cell viability in the test with HCT116 [1] came to 0.00144 µM. In addition, the efficacy in the test with HCT116 [2] was -73.8%.
On the same counts, the results for `CC(C)(C)C(=O)OCOP(=O)(COCCn1cnc2c(N)ncnc21)OCOC(=O)C(C)(C)C` [Adefovir dipivoxil] are 3.32 µM and -55.3%.
The like results for `Cc1cc(O[C@@H](CCC(F)(F)F)c2ccc(C(=O)NCCC(=O)O)cc2)cc(C)c1-c1ccc(C(C)(C)C)cc1` [Adomeglivant] were, in that order, 26.3 µM and -115%.
`CN(C)C/C=C/C(=O)Nc1cc2c(Nc3ccc(F)c(Cl)c3)ncnc2cc1O[C@H]1CCOC1` [Afatinib] came in with an AC50 cell viability in the test on HCT116 [1] of 4.68 µM. In addition, in the test with HCT116 [2], the efficacy is -100%.
Turning to `O=C(Nc1cccc(Br)c1)c1cccc([S+](=O)([O-])N2CCCCCC2)c1` [Ak-7], the AC50 cell viability in the test with HCT116 [1] is 14.8 µM. Moreover, the efficacy in the test on HCT116 [2] was -59.7%.
As for `CCC[S+]([O-])c1ccc2[nH]c(NC(=O)OC)nc2c1` (centres undefined) [Albendazole oxide], the AC50 cell viability in the test on HCT116 [1] worked out at 13.2 µM. Moreover, the efficacy with HCT116 [2] was -45.3%.
`COc1cccc2c1C(=O)c1c(O)c3c(c(O)c1C2=O)C[C@@](O)(/C(CO)=N/NC(=O)CCCCCN1C(=O)C=CC1=O)C[C@@H]3O[C@H]1C[C@H](N)[C@H](O)[C@H](C)O1` [Aldoxorubicin hydrochlorid] yielded an AC50 cell viability with HCT116 [1] of 2.35 µM. Also, in the test with HCT116 [2], the efficacy is -73.6%.
On the same counts, the results for `COC1=CC=CC(=C1/C2=N/CC3=C(N=C(NC4=CC(=C(C=C4)C(O)=O)OC)N=C3)C5=CC=C(Cl)C=C25)F` [Alisertib] are 0.417 µM and -41.5%.
On the same counts, the results for `O=C1c2cccc(O)c2C(=O)c2c(O)cc(CO)cc21` [Aloe-emodin] are 11.8 µM and -47.2%.
On to `Cc1nc(NC(=O)N2CCC[C@H]2C(N)=O)sc1-c1ccnc(C(C)(C)C(F)(F)F)c1` [Alpelisib], for which the AC50 cell viability with HCT116 [1] was found to be 14.8 µM. Also, the efficacy in the test with HCT116 [2] is -64.3%.
On the same counts, the results for `CO[C@H]1/C=C\C=C(\C)C(=O)NC2=CC(=O)C(NCCN(C)C)=C(C[C@@H](C)C[C@H](OC)[C@H](O)[C@@H](C)/C=C(/C)[C@@H]1OC(N)=O)C2=O` [Alvespimycin hydrochloride] are 0.372 µM and -92.8%.
On the same counts, the results for `CCN(CC)CCNC(=O)c1c(C)[nH]c(/C=C2/C(=O)Nc3ccc(-c4csc(-c5ccccc5)n4)cc32)c1C` [Amcasertib] are 20.9 µM and -99.9%.
On the same counts, the results for `CCCCc1oc2ccccc2c1C(=O)c1cc(I)c(OCCN(CC)CC)c(I)c1` [Amiodarone hydrochloride] are 23.5 µM and -71.8%.
`CCCCCCCOc1ccc(CCC(N)(CO)CO)cc1C(F)(F)F` [Amiselimod hydrochloride] had an AC50 cell viability in the test on HCT116 [1] of 10.5 µM. Also, in the test on HCT116 [2], the efficacy is -96.7%.
The like results for `CN(C)CCN1C(=O)c2cccc3cc(N)cc(c23)C1=O` [Amonafide] were, in that order, 4.17 µM and -72.8%.
The like results for `CC(=O)[C@]1(N)Cc2c(O)c3c(c(O)c2[C@@H](O[C@H]2C[C@H](O)[C@H](O)CO2)C1)C(=O)c1ccccc1C3=O` [Amrubicin] were, in that order, 6.61 µM and -75.8%.
The like results for `COc1cc(N[S+](C)(=O)[O-])ccc1Nc1c2ccccc2nc2ccccc12` [Amsacrine] were, in that order, 11.8 µM and -124%.
`S=C(NCc1ccc2c(c1)OCO2)N1CCN(c2ncnc3c2oc2ccccc23)CC1` [Amuvatinib] had an AC50 cell viability in the test with HCT116 [1] of 1.86 µM. In addition, the efficacy in the test with HCT116 [2] was -38.8%.
On the same counts, the results for `C=C1CCC2[C@](C)(CO)C(O)CC[C@]2(C)C1C/C=C1/C(=O)OCC1O` (some centres undefined) [Andrographolide] are 7.42 µM and -65.7%.
`C=C1CC[C@@H]2[C@](C)(CO)[C@H](O)CC[C@@]2(C)[C@@H]1C/C=C1/C(=O)OC[C@H]1O` [Andrographolide] registered an AC50 cell viability in the test with HCT116 [1] of 4.68 µM. The efficacy in the test with HCT116 [2] was -68.1%.
On the same counts, the results for `COc1cc2c(Oc3ccc4[nH]c(C)cc4c3F)ccnc2cc1OCC1(N)CC1` [Anlotinib] are 16.6 µM and -112%.
On the same counts, the results for `Cc1cccc(/C=N/Nc2cc(N3CCOCC3)nc(OCCc3ccccn3)n2)c1` [Apilimod] are 1.18 µM and -99.4%.
`CCOC(=O)c1c(CSc2ccccc2)n(C)c2cc(Br)c(O)c(CN(C)C)c12` [Arbidol] displayed an AC50 cell viability in the test with HCT116 [1] of 14.8 µM. Besides, in the test with HCT116 [2], the efficacy is -75.8%.
On the same counts, the results for `CC/1=C/C[C@]23O[C@@]2(C)CC[C@@H]4[C@H](OC(=O)C4=C)[C@@H]13` [Arglabin] are 14.8 µM and -79%.
In turn, `O=C1CCc2ccc(OCCCCN3CCN(c4cccc(Cl)c4Cl)CC3)cc2N1` [Aripiprazole] returned an AC50 cell viability in the test with HCT116 [1] of 18.6 µM. In addition, the efficacy in the test on HCT116 [2] was -93.8%.
On the same counts, the results for `C[C@@H]1CC[C@H]2[C@@H](C)C(=O)O[C@@H]3O[C@@]4(C)CC[C@@H]1[C@]32OO4` [Artemisinin] are 0.0295 µM and -30.7%.
`C[C@H]1[C@H](O)O[C@@H]2O[C@@]3(C)CC[C@H]4[C@H](C)CC[C@@H]1[C@@]24OO3` [Artenimol]: the AC50 cell viability with HCT116 [1] is 2.63 µM. Also, the efficacy in the test with HCT116 [2] is -78.7%.
On the same counts, the results for `C[C@H]1[C@H](OC(=O)CCC(=O)O)O[C@@H]2O[C@@]3(C)CC[C@H]4[C@H](C)CC[C@@H]1[C@@]24OO3` [Artesunate] are 4.17 µM and -62.6%.
On the same counts, the results for `O=C(Nc1ccc(OC(F)(F)Cl)cc1)c1cnc(N2CC[C@@H](O)C2)c(-c2ccn[nH]2)c1` [Asciminib] are 20.9 µM and -80.6%.
As to `O=C(Nc1ccc([S+](=O)([O-])N2CCOCC2)cc1)c1cc(Cl)ccc1N[S+](=O)([O-])c1ccc(Cl)s1` [Ataciguat], the AC50 cell viability with HCT116 [1] was determined as 23.5 µM. Further, the efficacy in the test with HCT116 [2] was -76%.
On the same counts, the results for `CCCC1(CCC)CCC2(CCN(CCCN(CC)CC)C2)CC1` [Atiprimod] are 2.63 µM and -99.3%.
The like results for `CC(C)c1c(C(=O)Nc2ccccc2)c(-c2ccccc2)c(-c2ccc(F)cc2)n1CC[C@@H](O)C[C@@H](O)CC(=O)O` [Atorvastatin calcium] were, in that order, 12.9 µM and -63.9%.
The like results for `COc1ccc(CC2c3cc(OC)c(OC)cc3CC[N+]2(C)CCC(=O)OCCCCCOC(=O)CC[N+]2(C)CCc3cc(OC)c(OC)cc3C2Cc2ccc(OC)c(OC)c2)cc1OC` (centres undefined) [Atracurium besylate] were, in that order, 23.5 µM and -77.8%.
On to `COc1cc(F)ccc1-c1ncnc(Nc2cccc(C[S+](C)(=N)[O-])c2)n1` (centres undefined) [Atuveciclib], for which the AC50 cell viability with HCT116 [1] came to 0.468 µM. In addition, in the test with HCT116 [2], the efficacy is -68%.

Source of the values: the supplement of paper PMC10290057.
